Source: US7858349B2, “Anti-cancer compounds” (The Regents of the University of Colorado, priority 1999, dated 2010)
Like-named read-outs stand apart in the source and are kept apart here.

Columns and labels:
NSCLC strain A-549 = assay: MTT assay for cell survival, NSCLC A-549 in vitro; type: cell-based, human; settings: ED50 for killing of NSCLC strain A-549 in vitro, 4 days
PC3 PC cells = assay: Inhibition of PC3 tumor growth in vivo in nude mice; design: species or system athymic nude mice; key to PC3 In vivo % inhib.: an IC50 value of “0” represents no detectable anti-cancer activity for a drug in a given cell line; “Stim.” indicates the observation of a stimulatory activity on the growth of the cancer cell line; settings: percent inhibition of tumor growth in nude mice; prostate cancer; i.p. 5 mg/kg/every second day or 10 mg/kg/every fourth day
Outline: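 Athymic nude mice carrying subcutaneous Matrigel implants (2 million SHP-77, 1 million A549 or 1.5 million PC3 cells) received intraperitoneal compound from day 8, 5 mg/kg every second day or 10 mg/kg every fourth day, 5 mice/group, vehicle controls. Inhibition from caliper volume (3.14×L×W²/6, thrice weekly) and tumor weight at autopsy.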

SCLC strain SHP-77 = assay: MTT assay for cell survival, SCLC SHP-77 in vitro; type: cell-based, human; settings: ED50 for killing of SCLC strain SHP-77 in vitro, 4 days, 0 = no detectable activity
A549 NSCLC cells = assay: Inhibition of A-549 tumor growth in vivo in nude mice; design: species or system athymic nude mice; key: an IC50 value of “0” represents no detectable anti-cancer activity for a drug in a given cell line; “Stim.” indicates the observation of a stimulatory activity on the growth of the cancer cell line; settings: percent inhibition of tumor growth in nude mice; i.p. 5 mg/kg/every second day or 10 mg/kg/every fourth day
Method: Compounds having high in vitro cytotoxic activity were tested against implanted tumors in vivo. Athymic nude mice were implanted subcutaneously with suspensions (2 million SHP-77 SCLC cells, 1 million A549 NSCLC cells or 1.5 million PC3 PC cells) in Matrigel suspension. On the eighth day after tumor implantation groups of 5 mice bearing implants were injected intraperitoneally with the compounds being tested at 5 mg/kg/every second day or at 10 mg/kg/every fourth day; control animals were injected with an equal volume of isotonic saline. Less soluble compounds were initially dissolved in dimethyl sulfoxide (DMSO) and diluted with medium. In those cases the control injections contained the same concentration of DMSO. Tumor size was measured with a caliper three times per week. Tumor volume was calculated by the formula: Volume(cc)=3.14×(length)×(width)^2/6 At autopsy tumors were removed and weighed. Tumor inhibition was calculated on both weight and measurement basis. In each Table, an IC50 value of “0” represents no detectable anti-cancer activity for a drug in a given cell line and “Stim.” indicates the observation of a stimulatory activity on the growth of the cancer cell line.

SMILES	IC50 (NSCLC strain A-549) [µM]	PC3 In vivo % inhib. (PC3 PC cells)	IC50 (SCLC strain SHP-77; read-out: SCLC SHP-77 IC50) [µM]	A-549 In vivo % inhib. (A549 NSCLC cells)	IC50 (SCLC strain SHP-77; read-out: SHP-77 In vitro IC50) [µM]
O=C(C=Cc1c(F)c(F)c(F)c(F)c1F)NC(Cc1ccc(I)cc1)C(=O)N1CCN(CCCc2ccccc2)CC1 (stereo not drawn) [Analog M-1308, F5c-PIF-Ppp]	14				
O=C(C=Cc1c(F)c(F)c(F)c(F)c1F)NC(Cc1ccc(I)cc1)C(=O)NC1CN2CCC1CC2 [Analog M-1290, F5c-PIF-(S)-(−)-Aqu]	14				
O=C(C=Cc1c(F)c(F)c(F)c(F)c1F)NC(Cc1ccc(I)cc1)C(=O)NC1CCN(Cc2ccccc2)C1 (stereo not drawn) [Analog M-1326, F5c-PIF-BapR]	10	0.6%			
O=C(C=Cc1c(F)c(F)c(F)c(F)c1F)NC(Cc1ccc(I)cc1)C(=O)N1CCCN(Cc2ccccc2)CC1 (stereo not drawn) [Analog M-1294, F5c-PIF-Bhp]	22	44%			
O=C(C=Cc1c(F)c(F)c(F)c(F)c1F)NC(Cc1ccc(-c2ccccc2)cc1)C(=O)NC1CN2CCC1CC2 [Analog M-1292, F5c-Bip-(S)-(−)-Aqu]	9.8				
COc1ccc2cc(C(C)C(=O)NC(Cc3ccc(OCc4c(Cl)cccc4Cl)cc3)C(=O)NC3CC(C)(C)NC(C)(C)C3)ccc2c1 (stereo not drawn) [Analog M-1380, Napr-OC2Y-Atmp]	1.6	26%	1.7		
O=C(C=Cc1c(F)c(F)c(F)c(F)c1F)NC(Cc1ccc(I)cc1)C(=O)N1CCN(CC2CCCCC2)CC1 (stereo not drawn) [Analog M-1314, F5c-PIF-Chmp]	21				
O=C(C=Cc1c(F)c(F)c(F)c(F)c1F)NC(Cc1ccc(I)cc1)C(=O)NC1CN2CCC1CC2 [Analog M-1286, F5c-PIF-(R)-(+)-Aqu]	9		4.3		
O=C(C=Cc1c(F)c(F)c(F)c(F)c1F)NC(Cc1ccc(I)cc1)C(=O)N1CCN(Cc2ccc(F)cc2)CC1 (stereo not drawn) [Analog M-1322, F5c-PIF-Fbp]	13	46%			
O=C(C=Cc1c(F)c(F)c(F)c(F)c1F)NC(Cc1ccc(-c2ccccc2)cc1)C(=O)NC1CN2CCC1CC2 [Analog M-1288, F5c-Bip-(R)-(+)-Aqu]	7.3		4.3		
O=C(C=Cc1c(F)c(F)c(F)c(F)c1F)NC(Cc1ccc(I)cc1)C(=O)N1CC2CC1CN2Cc1ccccc1 (stereo not drawn) [Analog M-1280, F5c-PIF-Bdbh]	20	40%	10		
Cc1cc(C)c(CN2CCN(C(=O)C(Cc3ccc(I)cc3)NC(=O)C=Cc3c(F)c(F)c(F)c(F)c3F)CC2)c(C)c1 (stereo not drawn) [Analog M-1334, F5c-PIF-Tmbp]	19	50%			
O=C(C=Cc1c(F)c(F)c(F)c(F)c1F)NC(Cc1ccc(I)cc1)C(=O)N1CCC2(CC1)OCCO2 (stereo not drawn) [Analog M-1284, F5c-PIF-Dasd]	20	Stim.	22		
C=CCN1CCN(C(=O)C(Cc2ccc(I)cc2)NC(=O)C=Cc2c(F)c(F)c(F)c(F)c2F)CC1 (stereo not drawn) [Analog M-1316, F5c-PIF-Alp]	20				
O=C(C=Cc1c(F)c(F)c(F)c(F)c1F)NC(Cc1ccc(-c2ccccc2)cc1)C(=O)N1CC2CC1CN2c1ccc(F)cc1 (stereo not drawn) [Analog M-1272, F5c-Bip-Fpdh]	22	71%	10		
O=C(C=Cc1c(F)c(F)c(F)c(F)c1F)NC(Cc1ccc(I)cc1)C(=O)N1CCN(c2ccc(Cl)cc2)CC1 (stereo not drawn) [Analog M-1298, F5c-PIF-Cpp]	21				
O=C(C=Cc1c(F)c(F)c(F)c(F)c1F)NC(Cc1ccc2ccccc2c1)C(=O)N(Cc1ccccn1)Cc1ccccn1 (stereo not drawn) [Analog M-1200, F5c-Nal-Dpic]				Stim	5
CC1(C)CC(NC(=O)C(Cc2ccc(OCc3c(Cl)cccc3Cl)cc2)NC(=O)Cc2c(F)c(F)c(F)c(F)c2F)CC(C)(C)N1 (stereo not drawn) [Analog M-1356, F5pa-OC2Y-Atmp]			4.4	0	

SMILES	IC50 (NSCLC strain A-549) [µM]	PC3 In vivo % inhib. (PC3 PC cells)	IC50 (SCLC strain SHP-77; read-out: SCLC SHP-77 IC50) [µM]	A-549 In vivo % inhib. (A549 NSCLC cells)	IC50 (SCLC strain SHP-77; read-out: SHP-77 In vitro IC50) [µM]
C=CCN(CC=C)CCN1CCN(C(=O)C(Cc2ccc(I)cc2)NC(=O)C=Cc2c(F)c(F)c(F)c(F)c2F)CC1 (stereo not drawn) [Analog M-1318, F5c-PIF-Daep]	8.4				
CC1(C)CC(NC(=O)C(Cc2ccc(OCc3c(Cl)cccc3Cl)cc2)NC(=O)c2ccccn2)CC(C)(C)N1 (stereo not drawn) [Analog M-1350, Pic-OC2Y-Atmp]			6.1	36%	
CC1(C)CC(NC(=O)C(Cc2ccc(OCc3c(Cl)cccc3Cl)cc2)NC(=O)c2ccc(B(O)O)cc2)CC(C)(C)N1 (stereo not drawn) [Analog M-1372, Bbz-OC2Y-Atmp]			> 60	64%	
CC1(C)CC(NC(=O)C(Cc2ccc(-c3ccccc3)cc2)NC(=O)C(c2ccc(Cl)cc2)c2ccc(Cl)cc2)CC(C)(C)N1 (stereo not drawn) [Analog M-1274, Bcpa-Bip-Atmp]	7.3		2.1		
CC1(C)CC(NC(=O)C(Cc2ccc(OCc3c(Cl)cccc3Cl)cc2)NC(=O)c2ccc(NC(=N)N)cc2)CC(C)(C)N1 (stereo not drawn) [Analog M-1390, Gbz-OC2Y-Atmp]	4.3	Stim.	> 40		
O=C(NC(Cc1ccc(-c2ccccc2)cc1)C(=O)N1CC2CC1CN2Cc1ccccc1)C(c1ccc(Cl)cc1)c1ccc(Cl)cc1 (stereo not drawn) [Analog M-1276, Bcpa-Bip-Bdbh]	20	56%	> 60		
N#Cc1ccc(N2CCN(C(=O)C(Cc3ccc(I)cc3)NC(=O)C=Cc3c(F)c(F)c(F)c(F)c3F)CC2)cc1 (stereo not drawn) [Analog M-1320, F5c-PIF-4-Cypp]	17				
Cc1ccc(CN2CCN(C(=O)C(Cc3ccc(I)cc3)NC(=O)C=Cc3c(F)c(F)c(F)c(F)c3F)CC2)cc1 (stereo not drawn) [Analog M-1332, F5c-PIF-4-Mbp]	7.8	63%			
O=C(C=Cc1c(F)c(F)c(F)c(F)c1F)NC(Cc1ccc(I)cc1)C(=O)N1CCN(CCc2ccccc2)CC1 (stereo not drawn) [Analog M-1304, F5c-PIF-Pep]	17				
CCCCCCCCN1CCN(C(=O)C(Cc2ccc(I)cc2)NC(=O)C=Cc2c(F)c(F)c(F)c(F)c2F)CC1 (stereo not drawn) [Analog M-1330, F5c-PIF-Ocp]	17	40%			
O=C(C=Cc1c(F)c(F)c(F)c(F)c1F)NC(Cc1ccc(I)cc1)C(=O)N1CCN(C(c2ccccc2)c2ccc(Cl)cc2)CC1 (stereo not drawn) [Analog M-1300, F5c-PIF-Cbp]	21				
O=C(C=Cc1c(F)c(F)c(F)c(F)c1F)NC(Cc1ccc(I)cc1)C(=O)N1CCN(Cc2ccc(Cl)cc2)CC1 (stereo not drawn) [Analog M-1310, F5c-PIF-4-Clbp]	12	Stim.			
O=C(C=Cc1c(F)c(F)c(F)c(F)c1F)NC(Cc1ccc(I)cc1)C(=O)NC1CCN(Cc2ccccc2)C1 (stereo not drawn) [Analog M-1312, F5c-PIF-BapS]	13	33%			
O=C(C=Cc1c(F)c(F)c(F)c(F)c1F)NC(Cc1ccc(I)cc1)C(=O)N1CCN(C(c2ccc(F)cc2)c2ccc(F)cc2)CC1 (stereo not drawn) [Analog M-1336, F5c-PIF-Fpmp]	12	71%			
O=C([C@H](Cc1ccc(OCc2c(Cl)cccc2Cl)cc1)NCc1c(F)c(F)c(F)c(F)c1F)N1CCN(C/C=C/c2ccccc2)CC1 [Analog M-1634, F5b-OC2Y-tCip]		Stim.	> 60		
CC1(C)CC(NC(=O)C(Cc2ccc(OCc3c(Cl)cccc3Cl)cc2)NC(=O)CC2Cc3ccccc3C2)CC(C)(C)N1 (stereo not drawn) [Analog M-1448, 2Ina-OC2Y-Atmp]		11%	13		
CC1(C)CC(NC(=O)C(Cc2ccc(OCc3c(Cl)cccc3Cl)cc2)NC(=O)c2ccc(-c3ccccc3)cc2)CC(C)(C)N1 (stereo not drawn) [Analog M-1542, 4Bpc-OC2Y-Atmp]		Stim.	6.4		
